Measurements as given in patent US5006515A, “Pharmaceuticals, phosphorus-containing 2-isoxazolines and isoxazoles contained therein” (Hoechst Aktiengesellschaft, priority 1987, dated 1991).
Read-outs that look alike come from different tables or passages of the source.

Tests used:
Acute toxicity = assay: Acute toxicity; design: species or system mice; details: mouse, in vivo, single dose, mortality within 7 days
Procedure: The LD50 values were determined by the standard method via the mortality occurring within 7 days in NMRI (Naval Medical Research Institute) mice (6 animals per dose) after a single intraperitoneal (i.p.) or intravenous (i.v.) dose.

active Arthus reaction = assay: Active Arthus reaction in the rat; type: in vivo, Sprague-Dawley rats; details: Rattus norvegicus; for change in vivo at 35 mg/kg / change in vivo at 25 mg/kg / change in vivo at 70 mg/kg / change in vivo at 100 mg/kg: read-out: Active Arthus reaction % change; for change in vivo at 50 mg/kg: oral dose 50 mg/kg
Procedure: The experimental animals used were female and male Sprague-Dawley rats with a body weight between 80 and 100 g which received subcutaneous injections into the tail-head of 0.5 ml of an emulsion of pertussis vaccine and ovalbumin in liquid paraffin. After two weeks, the rats were divided into groups each of 8 animals. 24 hours and 1 hour before induction of the Arthus reaction by injection of 0.1 ml of a 0.4% strength ovalbumin solution into the right hind paw, the particular test substance or the pure vehicle (positive control) was administered orally, sodium chloride solution was injected into the left paw. One group of unsensitized animals (negative control group) was likewise treated with ovalbumin in order to be able to rule out nonspecific reactions to the protein. The parameter used for measuring the action of the product was the percentage change in the increase in paw volume compared with that in the control group which was sensitized but untreated (positive control) 4 hours after ovalbumin challenge, when the swelling had reached its maximum.

[1] = system: DTH reaction to sheep erythrocytes; assay: Delayed-type hypersensitivity (DTH) reaction to sheep erythrocytes; type: in vivo, female NMRI mice; details: single i.p. dose of 40 mg/kg; maximal stimulation by Example 34 = 100%
Procedure: Groups each comprising 5 female NMRI mice with a body weight of 18 to 20 g were formed, and each animal was given 10^6 or 10^9 sheep red blood cells intravenously. Sheep erythrocytes are regarded in immunology as a standard antigen with which it is possible to check cellular and humoral immunoreactivity, especially the functioning of the T-cell-dependent component of the immune system, the so-called T-helper cells. The test substances were administered, in intraperitoneal doses of 5 to 100 mg/kg in physiological saline, at the same time as the antigen. After 5 days, each animal was given an injection of 2×10^8 sheep erythrocytes into the footpad. 24 hours later, the swelling of the foot was measured. The foot swelling is induced by a skin reaction of the delayed type (DTH reaction) and, as is known to those skilled in the art, is a measure of the cellular immune response (J. Immunol. 101 (1968), 830-845). The test results obtained with the product of Example 34, by way of example, are compiled in Table 7 and illustrate that the compounds of the formula I--administered prophylactically--are able to increase the cellular immune response after immunization with the antigen by stimulation of the T-cell system, with the stimulant action reaching its optimum in this experiment at a dose of 25 mg/kg.

leucine aminopeptidase = assay: Inhibition of leucine aminopeptidase; type: biochemical; details: substrate L-leucine 4-nitroanilide
Procedure: The activity of the enzyme aminopeptidase B was determined photometrically using the substrate L-lysine 2-naphthylamide at room temperature. […] In the same way, the inhibition of leucine aminopeptidase was investigated using L-leucine 4-nitroanilide as enzyme substrate. The IC50 values are compiled in Table 6.

[2] = po, 4 h, oral dose 35 mg/kg, 4 h after ovalbumin challenge
[3] = po, 4 h, 4 h after ovalbumin challenge

With `O=P(O)(O)C1CC(c2ccccn2)=NO1` (stereo not drawn) [Example 42] the LD50 at 168 h (Acute toxicity; iv) was greater than 200 mg/kg and the change in vivo at 35 mg/kg (active Arthus reaction; [2]) was -33%.
`O=P(O)(O)C1CC(C=Cc2ccccc2)=NO1` (stereo not drawn) [Example 52] gave a change in vivo at 50 mg/kg (active Arthus reaction; [3]) of -15%.
Work on `CCOP(=O)(O)C1CC(c2ccc(OC)cc2)=NO1` (stereo not drawn) [Example 28, Monoethyl ammonium 3-(4-methoxyphenyl)-2-isoxazolin-5-ylphosphonate] yielded an LD50 at 168 h (Acute toxicity; iv) greater than 200 mg/kg and a change in vivo at 25 mg/kg (active Arthus reaction; oral dose 25 mg/kg, 4 h after ovalbumin challenge) of -12%.
With `O=P(O)(O)CC1CC(c2ccccc2)=NO1` (stereo not drawn) [Example 39] the “Relative stimulation of the DTH reaction” value [1] was 136%, the LD50 at 168 h (Acute toxicity; ip) was 600 to 1200 mg/kg and the change in vivo at 50 mg/kg (active Arthus reaction; [3]) was 24%.
Work on `CP(C)(=O)C1CC(c2ccccn2)=NO1` (stereo not drawn) [Example 105] yielded an LD50 at 168 h (Acute toxicity; iv) greater than 100 mg/kg and a change in vivo at 35 mg/kg (active Arthus reaction; [2]) of -23%.
For `O=P(O)(O)C1CC(Cc2ccccc2)=NO1` (stereo not drawn) [Example 49], the LD50 at 168 h (Acute toxicity; iv) was greater than 200 mg/kg and the change in vivo at 50 mg/kg (active Arthus reaction; [3]) was -59%.
With `Br.CN(C)c1ccc(C2=NOC(P(=O)(O)O)C2)cc1` (stereo not drawn) [Example 71, 3-(4-Dimethylaminophenyl)-2-isoxazolin-5-ylphosphonic acid hydrobromide] the LD50 at 168 h (Acute toxicity; ip) was 150 to 300 mg/kg, the “Leucine aminopeptidase IC50” value (leucine aminopeptidase) was 37 μug/ml and the change in vivo at 70 mg/kg (active Arthus reaction; po, 4 h) was -10%.
`CCOC(=O)C1=NOC(P(C)(=O)O)C1` (stereo not drawn) [Example 101] gave an LD50 at 168 h (Acute toxicity; iv) greater than 100 mg/kg and a change in vivo at 70 mg/kg (active Arthus reaction; po, 4 h) of -32%.
For `Cc1ccc(C2=NOC(P(C)(=O)O)C2)cc1` (stereo not drawn) [Example 30], the “Relative stimulation of the DTH reaction” value [1] was 76%.
`CCOP(=O)(NCC(=O)OCc1ccccc1)C1CC(c2ccccc2)=NO1` (stereo not drawn) [Example 56, N-[3-Phenyl-2-isoxazolin-5-yl(P-ethoxy)phosphonoyl]glycine benzyl ester] showed an LD50 at 168 h (Acute toxicity; ip) greater than 1200 mg/kg and a change in vivo at 100 mg/kg (active Arthus reaction; oral dose 100 mg/kg, 4 h after ovalbumin challenge) of 35%.
For `O=P(O)(O)C1CC(c2cccs2)=NO1` (stereo not drawn) [Example 75, 3-(2-Thienyl)-2-isoxazolin-5-ylphosphonic acid], the LD50 at 168 h (Acute toxicity; iv) was greater than 100 mg/kg, the “Leucine aminopeptidase IC50” value (leucine aminopeptidase) was 79 μug/ml and the change in vivo at 35 mg/kg (active Arthus reaction; po, 4 h) was -26%.
In the case of `CCOP(=O)(OCC)C1CC(c2ccccc2)=NO1` (stereo not drawn) [Example 1, Diethyl 3-phenyl-2-isoxazolin-5-ylphosphonate], the “Leucine aminopeptidase IC50” value (leucine aminopeptidase) is reported as 65 μug/ml.
Compound `CC(C)(C)C1=NOC(P(=O)(O)O)C1` (stereo not drawn) [Example 33, 3-tert.butyl-2-isoxazolin-5-ylphosphonic acid] has an LD50 at 168 h (Acute toxicity; iv) greater than 200 mg/kg and a change in vivo at 100 mg/kg (active Arthus reaction; po, 4 h) of -15%.
With `O=P(O)(O)c1cc(-c2ccncc2)no1` [Example 51] the LD50 at 168 h (Acute toxicity; iv) was greater than 200 mg/kg and the change in vivo at 50 mg/kg (active Arthus reaction; [3]) was 17%.
`CP(=O)(O)C1CC(C(=O)O)=NO1` (stereo not drawn) [Example 102] gave a change in vivo at 35 mg/kg (active Arthus reaction; po, 4 h) of -35%.
In the case of `CCCC1=NOC(P(=O)(O)O)C1` (stereo not drawn) [Example 47], the LD50 at 168 h (Acute toxicity; iv) is reported as greater than 200 mg/kg, the “Leucine aminopeptidase IC50” value (leucine aminopeptidase) is reported as 35 μug/ml and the change in vivo at 25 mg/kg (active Arthus reaction; po, 4 h) is reported as -35%.
With `CP(C)(=O)C1CC(c2ccccc2)=NO1` (stereo not drawn) [Example 17, 3-Phenyl-2-isoxazolin-5-yldimethylphosphine oxide] the LD50 at 168 h (Acute toxicity; iv) was greater than 200 mg/kg and the change in vivo at 35 mg/kg (active Arthus reaction; [2]) was -34%.
Compound `O=P(O)(O)C1CC(c2ccccc2O)=NO1` (stereo not drawn) [Example 73, 3-(2-Hydroxyphenyl)-2-isoxazolin-5-ylphosphonic acid] has an LD50 at 168 h (Acute toxicity; ip) of 150 to 300 mg/kg and a change in vivo at 35 mg/kg (active Arthus reaction; [2]) of -44%.
In the case of `CCOP(=O)(C1CC(c2ccccc2)=NO1)N1CCCC1` (stereo not drawn) [Example 55, 3-Phenyl-2-isoxazolin-5-yl(P-ethoxy)phosphonic acid pyrrolidide], the LD50 at 168 h (Acute toxicity; iv) is reported as greater than 200 mg/kg and the change in vivo at 70 mg/kg (active Arthus reaction; oral dose 70 mg/kg, 4 h after ovalbumin challenge) is reported as -23%.
With `O=P(O)(O)C1CC(c2cccnc2)=NO1` (stereo not drawn) [Example 88] the change in vivo at 50 mg/kg (active Arthus reaction; [3]) was -50%.
For `O=P(O)(O)C1CC(c2cccc3ccccc23)=NO1` (stereo not drawn) [Example 45], the LD50 at 168 h (Acute toxicity; ip) was 75 to 150 mg/kg, the “Leucine aminopeptidase IC50” value (leucine aminopeptidase) was 92 μug/ml and the change in vivo at 50 mg/kg (active Arthus reaction; [3]) was -25%.
